From US10238680B2, “D-amino acid phosphoramidate pronucleotides of halogeno pyrimidine compounds for liver disease” (priority 2013, dated 2019)

Assays:
[1] = molecular target: T1, wild-type HCV genotype 1b NS5B polymerase (Hepatitis C virus genotype 1b, UniProt Q9WMX2); assay: HCV polymerase enzyme assay, wild-type; assay type: biochemical
T1 construct: approximately 65 kDa HCV genotype 1b NS5B protein were used to generate recombinant HCV polymerases (with a deletion of the 21 carboxy terminal amino acids); made in house
Description: Test compounds in the form of nucleoside triphosphates were examined for inhibitory activity against purified HCV polymerase in a standard assay. Bacterial expression constructs encoding the approximately 65 kDa HCV genotype 1b NS5B protein were used to generate recombinant HCV polymerases (with a deletion of the 21 carboxy terminal amino acids). The wild-type genotype 1b protein was expressed and purified for use in the enzymatic activity assay.
The enzymatic activity assay measured the inhibitory effect of increasing concentrations of test compound on the incorporation of α-[^33P]-labeled nucleotide into trichloroacetic acid-precipitable material. Recombinant polymerase and synthetic RNA template were combined in reaction buffer containing three unlabeled ribonucleoside triphosphates, one α-[^33P]-labeled ribonucleosidee triphosphate and eight concentrations of test compound in three-fold dilutions. Reactions were incubated for two hours at 30° C.
Reactions were terminated by the addition of ice-cold trichloroacetic acid and sodium pyrophosphate to promote precipitation of newly-synthesized ribonucleic acid. Precipitable material from the reactions was collected by filtration onto 96-well filter plates, washed extensively with water, and quantified by liquid scintillation.
The inhibitory activity of test compounds was determined by fitting results to dose-response curves using XLfit software.

HCV polymerase S282T = molecular target: T2, HCV polymerase S282T (Hepatitis C virus genotype 1b, UniProt Q9WMX2, S2701T); assay: HCV polymerase enzyme assay, S282T; assay type: biochemical
T2 construct: approximately 65 kDa HCV genotype 1b NS5B protein were used to generate recombinant HCV polymerases (with a deletion of the 21 carboxy terminal amino acids); made in house

C[C@@]1(Cl)[C@H](O)[C@@H](COP(=O)(O)OP(=O)(O)OP(=O)(O)O)O[C@H]1n1cc(F)c(=O)[nH]c1=O [Compound 301]
IC50 [1]: 250 to 1000 nM

C[C@@]1(Cl)[C@H](O)[C@@H](COP(=O)(O)OP(=O)(O)OP(=O)(O)O)O[C@H]1n1cc(F)c(N)nc1=O [Compound 303]
IC50 [1]: 250 to 1000 nM

C[C@@]1(O)[C@H](O)[C@@H](COP(=O)(O)OP(=O)(O)OP(=O)(O)O)O[C@H]1n1cc(F)c(N)nc1=O [Compound 302]
IC50 [1]: < 250 nM

C[C@@]1(F)[C@H](O)[C@@H](COP(=O)(O)OP(=O)(O)OP(=O)(O)O)O[C@H]1n1cc(F)c(=O)[nH]c1=O [Compound 304]
IC50 [1]: < 250 nM
IC50 (HCV polymerase S282T): 1 to 10 µM
